Results reported in patent US10584111B2, “4-(3-cyanophenyl)-6-pyridinylpyrimidine mGlu5 modulators” (Heptares Therapeutics Limited, priority 2013, dated 2020).

Test system: CD-1 mice
Experiment: In vivo efficacy test - marble burying
Parameters: species or system mouse
Details: male CD-1 mice, 10 and 30 mg/kg po, dosed 30 min prior to test; doses tested 1, 3, 10 and 30 mg/kg; one-way ANOVA with Dunnett's post-hoc test

## N#Cc1cc(Cl)cc(-c2cc(-c3ccc(F)cn3)ncn2)c1 [Example 17, 3-chloro-5-[6-(5-fluoropyridin-2-yl)pyrimidin-4-yl]benzonitrile]
  number of marbles buried versus vehicle group: statistically significant decrease in the number of marbles buried
